Assay results: the NIST ThermoML archive (doi:10.1016/j.jct.2016.12.032)

Assay: xn = mol fraction of the nth substance listed
Conditions: 100 kPa, Liquid; for viscosity: Capillary tube (Ostwald / Ubbelohde) method; for mass density: Vibrating tube method

O=C1CCCCCO1 [6-hexanolactone] + CCCC[n+]1ccn(C)c1.O=S(=O)([N-]S(=O)(=O)C(F)(F)F)C(F)(F)F
Conditions	mass density [kg/m3]	viscosity [mPa·s]
293.15 K, x2 = 0	1075.92	6.63
293.15 K, x2 = 0.05	1122.04	7.97
293.15 K, x2 = 0.1002	1161.48	9.67
293.15 K, x2 = 0.1505	1195.51	11.48
293.15 K, x2 = 0.1985	1223.86	13.4
293.15 K, x2 = 0.3001	1273.58	18.05
293.15 K, x2 = 0.3987	1311.9	23.25
293.15 K, x2 = 0.4903	1341.13	28.59
293.15 K, x2 = 0.6309	1377.36	37.38
293.15 K, x2 = 0.6988	1391.97	41.8
293.15 K, x2 = 0.8042	1411.81	48.8
293.15 K, x2 = 0.883	1424.76	54.08
298.15 K, x2 = 0	1071.67	5.76
298.15 K, x2 = 0.05	1117.68	6.87
298.15 K, x2 = 0.1002	1157.04	8.29
298.15 K, x2 = 0.1505	1191	9.78
298.15 K, x2 = 0.1985	1219.3	11.34
298.15 K, x2 = 0.3001	1268.92	15.14
298.15 K, x2 = 0.3987	1307.17	19.36
298.15 K, x2 = 0.4903	1336.35	23.66
298.15 K, x2 = 0.6309	1372.52	30.61
298.15 K, x2 = 0.6988	1387.11	34.05
298.15 K, x2 = 0.8042	1406.92	39.48
298.15 K, x2 = 0.883	1419.85	43.58
303.15 K, x2 = 0	1067.41	5.04
303.15 K, x2 = 0.05	1113.3	5.97
303.15 K, x2 = 0.1002	1152.56	7.18
303.15 K, x2 = 0.1505	1186.44	8.42
303.15 K, x2 = 0.1985	1214.67	9.71
303.15 K, x2 = 0.3001	1264.18	12.78
303.15 K, x2 = 0.3987	1302.35	16.15
303.15 K, x2 = 0.4903	1331.47	19.54
303.15 K, x2 = 0.6309	1367.57	25.2
303.15 K, x2 = 0.6988	1382.12	28.07
303.15 K, x2 = 0.8042	1401.89	32.58
303.15 K, x2 = 0.883	1414.8	36.02
308.15 K, x2 = 0	1063.15	4.44
308.15 K, x2 = 0.05	1108.94	5.22
308.15 K, x2 = 0.1002	1148.11	6.25
308.15 K, x2 = 0.1505	1181.92	7.26
308.15 K, x2 = 0.1985	1210.09	8.36
308.15 K, x2 = 0.3001	1259.51	10.91
308.15 K, x2 = 0.3987	1297.6	13.67
308.15 K, x2 = 0.4903	1326.67	16.42
308.15 K, x2 = 0.6309	1362.7	20.93
308.15 K, x2 = 0.6988	1377.23	23.21
308.15 K, x2 = 0.8042	1396.97	26.77
308.15 K, x2 = 0.883	1409.86	29.49
313.15 K, x2 = 0	1058.9	3.95
313.15 K, x2 = 0.05	1104.57	4.61
313.15 K, x2 = 0.1002	1143.65	5.5
313.15 K, x2 = 0.1505	1177.38	6.41
313.15 K, x2 = 0.1985	1205.49	7.35
313.15 K, x2 = 0.3001	1254.8	9.43
313.15 K, x2 = 0.3987	1292.82	11.71
313.15 K, x2 = 0.4903	1321.83	14.07
313.15 K, x2 = 0.6309	1357.8	17.79
313.15 K, x2 = 0.6988	1372.3	19.67
313.15 K, x2 = 0.8042	1392.01	22.59
313.15 K, x2 = 0.883	1404.86	24.85
318.15 K, x2 = 0	1054.65	3.53
318.15 K, x2 = 0.05	1100.22	4.07
318.15 K, x2 = 0.1002	1139.2	4.87
318.15 K, x2 = 0.1505	1172.86	5.67
318.15 K, x2 = 0.1985	1200.91	6.5
318.15 K, x2 = 0.3001	1250.12	8.31
318.15 K, x2 = 0.3987	1288.06	10.27
318.15 K, x2 = 0.4903	1317.02	12.18
318.15 K, x2 = 0.6309	1352.92	15.24
318.15 K, x2 = 0.6988	1367.39	16.82
318.15 K, x2 = 0.8042	1387.06	19.24
318.15 K, x2 = 0.883	1399.89	21.07
323.15 K, x2 = 0	1050.4	3.17
323.15 K, x2 = 0.05	1095.86	3.69
323.15 K, x2 = 0.1002	1134.75	4.36
323.15 K, x2 = 0.1505	1168.33	5.03
323.15 K, x2 = 0.1985	1196.32	5.73
323.15 K, x2 = 0.3001	1245.42	7.26
323.15 K, x2 = 0.3987	1283.28	8.9
323.15 K, x2 = 0.4903	1312.18	10.53
323.15 K, x2 = 0.6309	1348.01	13.14
323.15 K, x2 = 0.6988	1362.45	14.49
323.15 K, x2 = 0.8042	1382.08	16.64
323.15 K, x2 = 0.883	1394.89	18.26

CC1CCC(=O)O1 (stereo unspecified) [γ-valerolactone] + CCCC[n+]1ccn(C)c1.O=S(=O)([N-]S(=O)(=O)C(F)(F)F)C(F)(F)F
Conditions	mass density [kg/m3]	viscosity [mPa·s]
293.15 K, x2 = 0	1053.99	1.99
293.15 K, x2 = 0.0505	1108.43	2.51
293.15 K, x2 = 0.1001	1153.24	3.21
293.15 K, x2 = 0.1492	1191.45	4.28
293.15 K, x2 = 0.1998	1223.25	5.6
293.15 K, x2 = 0.3008	1274.04	8.84
293.15 K, x2 = 0.4031	1317.29	13.88
293.15 K, x2 = 0.5048	1347.03	19.18
293.15 K, x2 = 0.6031	1373.16	25.88
293.15 K, x2 = 0.6973	1393.96	33.12
293.15 K, x2 = 0.7994	1413.3	42.31
293.15 K, x2 = 0.8711	1426.6	50.45
298.15 K, x2 = 0	1049.28	1.82
298.15 K, x2 = 0.0505	1103.66	2.21
298.15 K, x2 = 0.1001	1148.42	2.76
298.15 K, x2 = 0.1492	1186.58	3.57
298.15 K, x2 = 0.1998	1218.36	4.71
298.15 K, x2 = 0.3008	1269.12	7.2
298.15 K, x2 = 0.4031	1312.35	11.11
298.15 K, x2 = 0.5048	1342.1	15.34
298.15 K, x2 = 0.6031	1368.22	20.69
298.15 K, x2 = 0.6973	1389.01	26.55
298.15 K, x2 = 0.7994	1408.36	34.16
298.15 K, x2 = 0.8711	1421.67	40.79
303.15 K, x2 = 0	1044.58	1.67
303.15 K, x2 = 0.0505	1098.86	1.98
303.15 K, x2 = 0.1001	1143.54	2.45
303.15 K, x2 = 0.1492	1181.67	3.13
303.15 K, x2 = 0.1998	1213.42	4.03
303.15 K, x2 = 0.3008	1264.12	6.01
303.15 K, x2 = 0.4031	1307.33	9.11
303.15 K, x2 = 0.5048	1337.07	12.52
303.15 K, x2 = 0.6031	1363.16	17.18
303.15 K, x2 = 0.6973	1383.94	21.62
303.15 K, x2 = 0.7994	1403.29	27.85
303.15 K, x2 = 0.8711	1416.59	33.15
308.15 K, x2 = 0	1039.87	1.53
308.15 K, x2 = 0.0505	1094.09	1.81
308.15 K, x2 = 0.1001	1138.71	2.22
308.15 K, x2 = 0.1492	1176.8	2.79
308.15 K, x2 = 0.1998	1208.52	3.53
308.15 K, x2 = 0.3008	1259.2	5.16
308.15 K, x2 = 0.4031	1302.39	7.78
308.15 K, x2 = 0.5048	1332.11	10.6
308.15 K, x2 = 0.6031	1358.2	14.12
308.15 K, x2 = 0.6973	1378.98	17.97
308.15 K, x2 = 0.7994	1398.34	22.82
308.15 K, x2 = 0.8711	1411.63	27.09
313.15 K, x2 = 0	1035.16	1.42
313.15 K, x2 = 0.0505	1089.31	1.65
313.15 K, x2 = 0.1001	1133.87	2
313.15 K, x2 = 0.1492	1171.93	2.45
313.15 K, x2 = 0.1998	1203.61	3.17
313.15 K, x2 = 0.3008	1254.26	4.5
313.15 K, x2 = 0.4031	1297.42	6.65
313.15 K, x2 = 0.5048	1327.12	9.02
313.15 K, x2 = 0.6031	1353.2	12.05
313.15 K, x2 = 0.6973	1373.98	15.14
313.15 K, x2 = 0.7994	1393.33	19.14
313.15 K, x2 = 0.8711	1406.62	22.7
318.15 K, x2 = 0	1030.45	1.32
318.15 K, x2 = 0.0505	1084.53	1.52
318.15 K, x2 = 0.1001	1129.05	1.79
318.15 K, x2 = 0.1492	1167.06	2.22
318.15 K, x2 = 0.1998	1198.73	2.8
318.15 K, x2 = 0.3008	1249.35	4.03
318.15 K, x2 = 0.4031	1292.49	5.76
318.15 K, x2 = 0.5048	1322.17	7.84
318.15 K, x2 = 0.6031	1348.24	10.41
318.15 K, x2 = 0.6973	1369.02	12.96
318.15 K, x2 = 0.7994	1388.35	16.42
318.15 K, x2 = 0.8711	1401.62	19.25
323.15 K, x2 = 0	1025.74	1.23
323.15 K, x2 = 0.0505	1079.76	1.41
323.15 K, x2 = 0.1001	1124.22	1.66
323.15 K, x2 = 0.1492	1162.18	2.04
323.15 K, x2 = 0.1998	1193.83	2.49
323.15 K, x2 = 0.3008	1244.4	3.59
323.15 K, x2 = 0.4031	1287.51	5.19
323.15 K, x2 = 0.5048	1317.18	6.98
323.15 K, x2 = 0.6031	1343.25	9.22
323.15 K, x2 = 0.6973	1364.02	11.45
323.15 K, x2 = 0.7994	1383.35	14.32
323.15 K, x2 = 0.8711	1396.6	16.68
